# Values joined by “and” are separate entries in the source; they are usually repeats but may differ in a detail not shown here. Equal entries are not always repeated.
# Key:
# [1] = tested on: relapsed-refractory multiple myeloma (RRMM) patients; experiment: Efficacy in patients with RRMM, Example 2b, time point (bi); type: in vivo, human
# Procedure: Example 2: An open label single arm extension on the dose of 40 mg over 30 minutes of Example 1. Intravenous melflufen was administered over 30 minutes on Day 1 of a 21-day cycle or 28-day cycle (in combination with 40 mg dexamethasone (oral or intravenous) treatment on Days 1, 8 and 15) for at least 2 cycles, and up to the stated number of cycles. The cycle length was extended during the Example 2 Clinical Trial from 21 to 28 days per a protocol amendment to allow for a better recovery of neutrophils and thrombocytes before a new cycle is initiated.
# Example 2a results are from a data cut-off of time point (a). Example 2b results are from a data cut-off of time point (bi) for the efficacy data, which was approximately 12 months after time point (a); and from a data cut-off of time point (bii) for the safety data, which was approximately 10 months after time point (a).
# By the data cut-off point (bi), […] (the 40 mg dosage excludes the mass of the salt component) administered over 30 minutes every 3 weeks (21 days) in combination with weekly dexamethasone (day 1, 8 and 15) or every 4 weeks (28 days) in combination with weekly dexamethasone (day 1, 8, 15 and 22).
# […] 10 patients were not evaluable for efficacy evaluation due to rapid early progression (8), or early termination due to adverse events (2).
# [2] = tested on: patients with relapsed and/or relapsed-refractory multiple myeloma; experiment: Safety of various dosages of melflufen, TEAEs (Example 1); type: in vivo, human
# Procedure: Example 1: 4 dose levels (15, 25, 40 and 55 mg) of intravenous melflufen hydrochloride (excluding the mass of the salt component) in 290 to 370 ml glucose solution administered over 30 minutes on Day 1 of a 21-day cycle (in combination with dexamethasone treatment on Days 1, 8 and 15), for at least 1 cycle and up to 12 cycles, were evaluated.
# Treatment emergent adverse events (TEAEs) of any grade were recorded in 29 patients that took part in Example 1 (4 patients at 15 mg dosage of melflufen over 30 minutes; 7 patients at 25 mg dosage of melflufen over 30 minutes; 12 patients at 40 mg dosage of melflufen over 30 minutes; and 6 patients at 55 mg dosage of melflufen over 30 minutes).
# [3] = Evaluable ≥ 2 cycles, n 30, listed as Melflufen
# [4] = Pomalidomide refractory, Example 2b, efficacy evaluable N = 29
# [5] = Pomalidomide refractory, Example 2b, treated patients N = 39
# [6] = Triple refractory (2 PI/ImiD + 1 ImiD/PI), Example 2b, treated patients N = 39
# [7] = refractory status Alkylator, Example 2b, treated patients N = 39
# [8] = refractory status Cyclophosphamide, Example 2b, efficacy evaluable N = 29
# [9] = refractory status Cyclophosphamide, Example 2b, treated patients N = 39
# [10] = refractory status High dose melphalan, Example 2b, efficacy evaluable N = 29
# [11] = refractory status High dose melphalan, Example 2b, treated patients N = 39
# [12] = refractory status IMiD, Example 2b, treated patients N = 39
# [13] = refractory status Low dose melphalan, Example 2b, efficacy evaluable N = 29
# [14] = refractory status Low dose melphalan, Example 2b, treated patients N = 39
# [15] = refractory status None, Example 2b, efficacy evaluable N = 29
# [16] = refractory status None, Example 2b, treated patients N = 39
# [17] = refractory status PI + IMiD + Alkylator, Example 2b, efficacy evaluable N = 29
# [18] = refractory status PI + IMiD + Alkylator, Example 2b, treated patients N = 39
# [19] = refractory status PI + IMiD, Example 2b, treated patients N = 39
# [20] = refractory status PI, Example 2b, treated patients N = 39
# [21] = 55 mg melflufen hydrochloride, 6 patients
# [22] = Example 1, all dose levels, 29 patients
compound,measurement,setting,value
"CCOC(=O)[C@H](Cc1ccc(F)cc1)NC(=O)[C@@H](N)Cc1ccc(N(CCCl)CCCl)cc1.Cl [melflufen, L-Melphalanyl-4-fluoro-L-phenylalanine ethyl ester]",CRR (≥MR),"[1]; Antibody refractory, Example 2b, efficacy evaluable N = 29",(50)+ %
same,CRR (≥MR),"[1]; Antibody refractory, Example 2b, treated patients N = 39",(33) %
same,Clinical Benefit Rate (CBR),"[1]; Evaluable ≥ 1 cycle, n 40",50%
same,"Minimal Response (MR), patients","[1]; Evaluable ≥ 1 cycle, n 40",8
same,Overall Response Rate (ORR),"[1]; Evaluable ≥ 1 cycle, n 40",30%
same,"Positive Response (PR), patients","[1]; Evaluable ≥ 1 cycle, n 40",9
same,"Progressive Disease (PD), patients","[1]; Evaluable ≥ 1 cycle, n 40",9
same,"Stable Disease (SD), patients","[1]; Evaluable ≥ 1 cycle, n 40",11
same,"Very Good Positive Response (PR), patients","[1]; Evaluable ≥ 1 cycle, n 40",3
same,Clinical Benefit Rate (CBR),"[1]; Evaluable ≥ 2 cycles, n 30",56% and 63%
same,Overall Response Rate (ORR),"[1]; Evaluable ≥ 2 cycles, n 30",41% and 40%
same,"Positive Response (PR), patients","[1]; Evaluable ≥ 2 cycles, n 30",9
same,"Progressive Disease (PD), patients","[1]; Evaluable ≥ 2 cycles, n 30",1
same,"Stable Disease (SD), patients","[1]; Evaluable ≥ 2 cycles, n 30",10
same,"Very Good Positive Response (PR), patients","[1]; Evaluable ≥ 2 cycles, n 30, 40 mg over 30 min + dexamethasone",2
same,"Very Good Positive Response (PR), patients","[1]; Evaluable ≥ 2 cycles, n 30, 40 mg over 30 min + dexamethasone, listed as Melflufen",3
same,Clinical Benefit Rate (CBR),[1]; [3],63%
same,"Minimal Response (MR), patients",[1]; [3],7
same,Overall Response Rate (ORR),[1]; [3],40%
same,median duration of response (DOR),"[1]; Example 2b, 11 events in 12 responding patients",7.7 months
same,median progression free survival (PFS),"[1]; Example 2b, ITT-population (n=40)",4.3 months
same,median progression free survival (PFS),"[1]; Example 2b, PP-population (efficacy evaluable, n=30)",7.9 months
same,increase in PFS compared to pomalidomide+dexamethasone and carfilzomib,"[1]; Example 2b, efficacy evaluable population",around 4 months
same,CRR (≥MR),[1]; [4],(55) %
same,ORR (≥PR),[1]; [4],(36) %
same,CRR (≥MR),[1]; [5],(44) %
same,ORR (≥PR),[1]; [5],(25) %
same,CRR (≥MR),"[1]; Triple refractory (2 PI/ImiD + 1 ImiD/PI), Example 2b, efficacy evaluable N = 29",(70) %
same,CRR (≥MR),[1]; [6],(44) %
same,ORR (≥PR),[1]; [6],(25) %
same,"best response of minimal response (MR) or better, n patients",[1]; of 30 evaluable,15 and 19
same,"partial response (PR) or better, n patients",[1]; of 30 evaluable,12
same,"best response of PR or better, n patients",[1]; of the 8 patients refractory to an alkylator as their last line of treatment,5
same,CRR (≥MR),"[1]; refractory status Alkylator, Example 2b, efficacy evaluable N = 29",(73) %
same,CRR (≥MR),[1]; [7],(55) %
same,ORR (≥PR),[1]; [7],(36) %
same,CRR (≥MR),[1]; [8],(80) %
same,ORR (≥PR),[1]; [8],(60) %
same,CRR (≥MR),[1]; [9],(53) %
same,ORR (≥PR),[1]; [9],(40) %
same,CRR (≥MR),[1]; [10],(100) %
same,ORR (≥PR),[1]; [10],(67) %
same,CRR (≥MR),[1]; [11],(100) %
same,ORR (≥PR),[1]; [11],(33) %
same,CRR (≥MR),"[1]; refractory status IMiD, Example 2b, efficacy evaluable N = 29",(63) %
same,CRR (≥MR),[1]; [12],(47) %
same,ORR (≥PR),[1]; [12],(28) %
same,CRR (≥MR),[1]; [13],(60) %
same,ORR (≥PR),[1]; [13],(40) %
same,CRR (≥MR),[1]; [14],(67) %
same,ORR (≥PR),[1]; [14],(33) %
same,CRR (≥MR),[1]; [15],(100) %
same,ORR (≥PR),[1]; [15],(100) %
same,CRR (≥MR),[1]; [16],(100) %
same,ORR (≥PR),[1]; [16],(100) %
same,CRR (≥MR),[1]; [17],(44) %
same,ORR (≥PR),[1]; [17],(33) %
same,CRR (≥MR),[1]; [18],(40) %
same,ORR (≥PR),[1]; [18],(20) %
same,CRR (≥MR),"[1]; refractory status PI + IMiD, Example 2b, efficacy evaluable N = 29",(59) %
same,CRR (≥MR),[1]; [19],(46) %
same,ORR (≥PR),[1]; [19],(25) %
same,CRR (≥MR),"[1]; refractory status PI, Example 2b, efficacy evaluable N = 29",(63) %
same,CRR (≥MR),[1]; [20],(50) %
same,ORR (≥PR),[1]; [20],(25) %
same,"Any treatment-related Grade 3 and 4 TEAE, n patients",[2]; 15 mg over 30 min (n = 4),2
same,"Any treatment-related Grade 3 and 4 TEAE, total number of events",[2]; 15 mg over 30 min (n = 4),(4)
same,"Grade 3 and 4 febrile neutropenia, n patients",[2]; 15 mg over 30 min (n = 4),1
same,"Grade 3 and 4 febrile neutropenia, total number of events",[2]; 15 mg over 30 min (n = 4),(1)
same,"Grade 3 and 4 neutropenia, n patients",[2]; 15 mg over 30 min (n = 4),0
same,"Grade 3 and 4 neutropenia, total number of events",[2]; 15 mg over 30 min (n = 4),(0)
same,"Grade 3 and 4 thrombocytopenia, n patients",[2]; 15 mg over 30 min (n = 4),1
same,"Grade 3 and 4 thrombocytopenia, total number of events",[2]; 15 mg over 30 min (n = 4),(1)
same,"Any treatment-related Grade 3 and 4 TEAE, n patients",[2]; 25 mg over 30 min (n = 7),5
same,"Any treatment-related Grade 3 and 4 TEAE, total number of events",[2]; 25 mg over 30 min (n = 7),(13)
same,"Grade 3 and 4 febrile neutropenia, n patients",[2]; 25 mg over 30 min (n = 7),0
same,"Grade 3 and 4 febrile neutropenia, total number of events",[2]; 25 mg over 30 min (n = 7),(0)
same,"Grade 3 and 4 neutropenia, n patients",[2]; 25 mg over 30 min (n = 7),2
same,"Grade 3 and 4 neutropenia, total number of events",[2]; 25 mg over 30 min (n = 7),(6)
same,"Grade 3 and 4 thrombocytopenia, n patients",[2]; 25 mg over 30 min (n = 7),2
same,"Grade 3 and 4 thrombocytopenia, total number of events",[2]; 25 mg over 30 min (n = 7),(3)
same,"Any treatment-related Grade 3 and 4 TEAE, n patients",[2]; 40 mg over 30 min (n = 12),7
same,"Any treatment-related Grade 3 and 4 TEAE, total number of events",[2]; 40 mg over 30 min (n = 12),(23)
same,"Grade 3 and 4 febrile neutropenia, n patients",[2]; 40 mg over 30 min (n = 12),1
same,"Grade 3 and 4 febrile neutropenia, total number of events",[2]; 40 mg over 30 min (n = 12),(2)
same,"Grade 3 and 4 neutropenia, n patients",[2]; 40 mg over 30 min (n = 12),4
same,"Grade 3 and 4 neutropenia, total number of events",[2]; 40 mg over 30 min (n = 12),(8)
same,"Grade 3 and 4 thrombocytopenia, n patients",[2]; 40 mg over 30 min (n = 12),4
same,"Grade 3 and 4 thrombocytopenia, total number of events",[2]; 40 mg over 30 min (n = 12),(9)
same,"Anemia, treatment related ≥grade 3",[2]; [21],(33) %
same,"Any treatment-related grade 3 and/or grade 4, ≥grade 3",[2]; [21],(100) %
same,"Blood and lymphatic system disorders, treatment related ≥grade 3",[2]; [21],(100) %
same,"Cutaneous rash, treatment related ≥grade 3",[2]; [21],(17) %
same,"Fatigue, treatment related ≥grade 3",[2]; [21],(17) %
same,"General disorders and administration site conditions, treatment related ≥grade 3",[2]; [21],(17) %
same,"Infections and infestations, treatment related ≥grade 3",[2]; [21],(50) %
same,"Neutropenia, treatment related ≥grade 3",[2]; [21],(100) %
same,"Pancytopenia, treatment related ≥grade 3",[2]; [21],(17) %
same,"Pneumonia, treatment related ≥grade 3",[2]; [21],(33) %
same,"Sepsis, treatment related ≥grade 3",[2]; [21],(17) %
same,"Skin and subcutaneous disorders, treatment related ≥grade 3",[2]; [21],(17) %
same,"Thrombocytopenia, treatment related ≥grade 3",[2]; [21],(83) %
same,"Urinary tract infection, treatment related ≥grade 3",[2]; [21],(17) %
same,"Any treatment-related Grade 3 and 4 TEAE, n patients",[2]; 55 mg over 30 min (n = 6),6
same,"Any treatment-related Grade 3 and 4 TEAE, total number of events",[2]; 55 mg over 30 min (n = 6),(58)
same,"Grade 3 and 4 febrile neutropenia, n patients",[2]; 55 mg over 30 min (n = 6),1
same,"Grade 3 and 4 febrile neutropenia, total number of events",[2]; 55 mg over 30 min (n = 6),(1)
same,"Grade 3 and 4 neutropenia, n patients",[2]; 55 mg over 30 min (n = 6),5
same,"Grade 3 and 4 neutropenia, total number of events",[2]; 55 mg over 30 min (n = 6),(17)
same,"Grade 3 and 4 thrombocytopenia, n patients",[2]; 55 mg over 30 min (n = 6),5
same,"Grade 3 and 4 thrombocytopenia, total number of events",[2]; 55 mg over 30 min (n = 6),(28)
same,"related Grade 3 or 4 neutropenia at least once, patients","[2]; Example 1, all dose levels",38%
same,"related Grade 3 or 4 thrombocytopenia at least once, patients","[2]; Example 1, all dose levels",41%
same,total number of TEAEs reported,"[2]; Example 1, all dose levels 15-55 mg, 29 patients",157
same,"Grade 3 or 4 TEAEs, regardless of relationship, patients",[2]; [22],76%
same,"anemia, all grades, regardless of relationship",[2]; [22],59%
same,"anemia, all grades, regardless of relationship, n patients",[2]; [22],17
same,"nausea, all grades, regardless of relationship",[2]; [22],38%
same,"nausea, all grades, regardless of relationship, n patients",[2]; [22],11
same,"neutropenia, all grades, regardless of relationship",[2]; [22],41%
same,"neutropenia, all grades, regardless of relationship, n patients",[2]; [22],12
same,"thrombocytopenia, all grades, regardless of relationship",[2]; [22],69%
same,"thrombocytopenia, all grades, regardless of relationship, n patients",[2]; [22],20
same,"Grade 3 or 4 TEAEs, regardless of relationship, n patients","[2]; Example 1, all dose levels, of 29 patients",22

# — patent US20220047507A1, “MELFLUFEN DOSAGE REGIMENS FOR CANCER” (ONCOPEPTIDES AB, priority 2015, published 2022)
